According to doi:10.1101/2021.01.21.427670v1 (biorxiv, 2021):

Key:
α4β1δ GABAA receptor [1] = biological target: T1, α4β1δ GABAA receptor (Homo sapiens, UniProt P18505+P48169, P18505:I289Q); experiment: FLIPR membrane potential; type: cell-based
α4β1δ GABAA receptor [2] = biological target: T2, α4β1δ GABAA receptor (Homo sapiens, UniProt P18505+P48169, P48169:S303L); experiment: FLIPR membrane potential; type: cell-based
α4β1δ GABAA receptor [3] = biological target: T3, α4β1δ GABAA receptor (Homo sapiens, UniProt P18505+P48169); experiment: FLIPR membrane potential; type: cell-based
T3 sequence (P48169 36-554): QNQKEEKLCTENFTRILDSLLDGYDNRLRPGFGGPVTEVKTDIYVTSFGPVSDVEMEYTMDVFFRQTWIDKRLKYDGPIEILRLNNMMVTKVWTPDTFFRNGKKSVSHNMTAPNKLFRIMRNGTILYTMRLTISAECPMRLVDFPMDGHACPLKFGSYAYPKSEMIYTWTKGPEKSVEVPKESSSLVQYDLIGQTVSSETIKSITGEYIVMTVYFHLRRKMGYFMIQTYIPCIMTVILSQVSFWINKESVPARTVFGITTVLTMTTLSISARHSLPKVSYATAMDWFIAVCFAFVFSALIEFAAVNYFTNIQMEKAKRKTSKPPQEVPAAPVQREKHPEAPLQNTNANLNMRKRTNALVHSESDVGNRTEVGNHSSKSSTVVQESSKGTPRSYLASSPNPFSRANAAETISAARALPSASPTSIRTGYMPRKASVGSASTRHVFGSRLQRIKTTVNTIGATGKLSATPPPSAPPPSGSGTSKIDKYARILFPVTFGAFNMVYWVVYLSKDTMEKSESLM
T3 sequence (P18505 26-474): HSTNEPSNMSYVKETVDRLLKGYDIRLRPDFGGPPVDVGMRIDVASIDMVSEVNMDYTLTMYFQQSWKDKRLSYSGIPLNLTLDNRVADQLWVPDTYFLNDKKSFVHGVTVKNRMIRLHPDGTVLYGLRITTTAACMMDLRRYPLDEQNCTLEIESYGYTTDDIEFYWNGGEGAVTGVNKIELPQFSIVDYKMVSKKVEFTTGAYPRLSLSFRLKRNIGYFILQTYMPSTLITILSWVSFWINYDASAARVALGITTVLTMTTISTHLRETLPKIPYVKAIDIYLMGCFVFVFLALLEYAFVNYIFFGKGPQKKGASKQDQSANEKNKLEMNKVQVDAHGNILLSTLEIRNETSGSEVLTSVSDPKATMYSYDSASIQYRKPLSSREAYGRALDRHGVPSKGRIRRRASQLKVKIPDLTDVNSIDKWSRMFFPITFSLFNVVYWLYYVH
T3 sequence (O14764 25-452 partner): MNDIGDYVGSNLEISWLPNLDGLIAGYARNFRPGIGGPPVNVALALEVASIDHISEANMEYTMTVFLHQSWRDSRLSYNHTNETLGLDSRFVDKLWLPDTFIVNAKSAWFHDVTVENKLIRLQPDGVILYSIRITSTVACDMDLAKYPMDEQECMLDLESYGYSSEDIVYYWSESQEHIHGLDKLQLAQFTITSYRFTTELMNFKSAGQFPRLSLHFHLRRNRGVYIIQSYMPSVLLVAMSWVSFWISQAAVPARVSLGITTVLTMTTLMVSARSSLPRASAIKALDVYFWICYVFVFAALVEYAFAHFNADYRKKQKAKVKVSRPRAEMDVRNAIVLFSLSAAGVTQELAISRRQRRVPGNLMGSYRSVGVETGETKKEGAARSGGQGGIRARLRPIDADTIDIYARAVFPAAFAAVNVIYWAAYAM

α4β1δ GABAA receptor [4] = biological target: T1, α4β1δ GABAA receptor; experiment: cell-based; set-up: species or system HEK293 Flp-In
α4β1δ GABAA receptor [5] = biological target: T3, α4β1δ GABAA receptor; experiment: cell-based; set-up: species or system HEK293 Flp-In
α4β1δ GABAA receptor [6] = biological target: T2, α4β1δ GABAA receptor; experiment: cell-based; set-up: species or system HEK293 Flp-In

T2 sequence (P48169 36-554 S303L): as the sequence (P48169 36-554) above, with S268L counted along it
T2 sequence (P18505 26-474): as the sequence (P18505 26-474) above
T2 sequence (O14764 25-452 partner): as the sequence (O14764 25-452 partner) above
T1 sequence (P48169 36-554): as the sequence (P48169 36-554) above
T1 sequence (P18505 26-474 I289Q): as the sequence (P18505 26-474) above, with I264Q counted along it
T1 sequence (O14764 25-452 partner): as the sequence (O14764 25-452 partner) above

Compound | EC50 (α4β1δ GABAA receptor [1]) | EC50 (α4β1δ GABAA receptor [2]) | EC50 (α4β1δ GABAA receptor [3]) | EC50 (α4β1δ GABAA receptor [4]) | EC50 (α4β1δ GABAA receptor [5]) | EC50 (α4β1δ GABAA receptor [6])
CCOC(=O)c1cncn1[C@H](C)c1ccccc1 [etomidate, (R)-1-(1-phenylethyl)-1H-imidazole-5-carboxylic acid ethyl ester] | 9.3 µM | 6.2 µM | 7.8 µM |  |  | 
CCOC(=O)Nc1ccc(NCc2c(C)cc(C)cc2C)cc1N [AA29504, [2-amino-4-(2,4,6-trimethylbenzylamino)-phenyl]-carbamic acid ethyl ester] |  |  |  | 0.76 µM | 0.55 µM | 0.25 µM
